US20070249620A1, “Urea Derivative” (priority 2004, published 2007)

Experiments:
mouse DGAT1 = target: T1, mouse DGAT1 (Mus musculus, UniProt Q9Z2A7); experiment: DGAT1 inhibitory effect test (microsome fraction, [14C]-oleoyl-CoA, triglyceride radioactivity by TLC); type: biochemical; conditions: 0.5 h; concentration of the test compound 0.1 μg/ml; mouse DGAT1 microsomes, 23° C., 30 minutes; read-out: Inhibitory ratio
T1 construct: made in house; host or cells: insect cells (High Five, Sf9, Sf21, etc.), baculovirus expression system (Invitrogen)
T1 sequence (Q9Z2A7 1-498): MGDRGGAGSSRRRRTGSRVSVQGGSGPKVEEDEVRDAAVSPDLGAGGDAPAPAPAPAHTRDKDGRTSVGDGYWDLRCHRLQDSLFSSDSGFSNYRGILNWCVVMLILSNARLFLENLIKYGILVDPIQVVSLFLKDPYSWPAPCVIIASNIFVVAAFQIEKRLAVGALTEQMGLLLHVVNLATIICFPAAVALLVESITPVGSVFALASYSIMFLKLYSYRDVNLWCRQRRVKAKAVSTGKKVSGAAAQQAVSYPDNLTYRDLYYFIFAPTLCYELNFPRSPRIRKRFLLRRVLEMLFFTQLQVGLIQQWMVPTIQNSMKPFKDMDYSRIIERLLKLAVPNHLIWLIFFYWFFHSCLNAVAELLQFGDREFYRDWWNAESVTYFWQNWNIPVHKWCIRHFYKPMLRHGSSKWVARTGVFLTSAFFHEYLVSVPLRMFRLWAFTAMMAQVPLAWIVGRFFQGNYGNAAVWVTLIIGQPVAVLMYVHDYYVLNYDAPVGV
How it was run: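 Inhibition was scored from radiolabelled triglyceride separated by TLC, relative to vehicle and net of a 0-min background. The reaction ran for 30 min at room temperature (23 °C) in Tris-HCl pH 8.0 with MgCl2, BSA and Triton X-100. Substrates were 30 μM [14C]-oleoyl-CoA and 0.5 mM dioleoylglycerol, with mouse DGAT1 microsomes from baculovirus-infected insect cells as enzyme.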

Structure (SMILES)	inhibition at 0.1 µg/mL (mouse DGAT1) [%]	melting point [°C]
CCOc1ccc(F)cc1NC(=O)Nc1ccc(N2CCN(C(=O)Nc3ccc(C)cc3Cl)CC2)cc1 [Example 122, 4-{4-[3-(2-ethoxy-5-fluoro-phenyl)-ureido]-phenyl}-piperazine-1-carboxylic acid (2-chloro-4-methyl-phenyl)-amide]	≥ 50	155 to 157
COc1ccc(C)cc1NC(=O)Nc1ccc(N2CCN(C(=O)Nc3c(C)cccc3C)C(C)C2)cc1 (centres unmarked) [Example 199, 4-{4-[3-(2-methoxy-5-methyl-phenyl)-ureido]-phenyl}-2-methyl-piperazine-1-carboxylic acid (2,6-dimethyl-phenyl)-amide]	≥ 50	204 to 206
O=C(Nc1ccc(N2CCN(C(=O)Nc3ccc(OCCO)cc3C(F)(F)F)CC2)cc1)Nc1ccccc1OC(F)(F)F [Example 240, 4-{4-[3-(2-trifluoromethoxy-phenyl)-ureido]-phenyl}-piperazine-1-carboxylic acid [4-(2-hydroxy-ethoxy)-2-trifluoromethyl-phenyl]-amide]	≥ 50	112 to 114
CCOc1ccccc1NC(=O)Nc1ccc(N2CCN(C(=O)Nc3ccc(C)cc3Cl)CC2)cc1 [Example 121, 4-{4-[3-(2-ethoxy-phenyl)-ureido]-phenyl}-piperazine-1-carboxylic acid (2-chloro-4-methyl-phenyl)-amide]	≥ 50	179 to 181
CCOc1ccccc1NC(=O)Nc1ccc(N2CCN(C(=O)Nc3c(C)cccc3OC)CC2)nc1 [Example 187, 4-{5-[3-(2-ethoxy-phenyl)-ureido]-pyridin-2-yl}-piperazine-1-carboxylic acid (2-methoxy-6-methyl-phenyl)-amide]	≥ 50	129 to 130
COc1ccc(C)cc1NC(=O)Nc1ccc(C2CCN(C(=O)Nc3cc(OCCO)ccc3Cl)CC2)cc1 [Example 274, 4-{4-[3-(2-methoxy-5-methyl-phenyl)-ureido]-phenyl}-piperidine-1-carboxylic acid [2-chloro-5-(2-hydroxy-ethoxy)-phenyl]-amide]	≥ 50	202 to 205
COc1ccc(C)cc1NC(=O)Nc1ccc(C2=CCN(C(=O)Nc3ccc(OCC(O)CO)cc3Cl)CC2)cc1 (centres unmarked) [Example 281, 4-{4-[3-(2-methoxy-5-methyl-phenyl)-ureido]-phenyl}-3,6-dihydro-2H-pyridine-1-carboxylic acid [2-chloro-4-(2,3-dihydroxy-propoxy)-phenyl]-amide]	≥ 50	125 to 128
CCOc1cccc(NC(=O)Nc2ccc(N3CCN(C(=O)Nc4cc(OCCO)ccc4Cl)CC3)cc2)c1 [Example 233, 4-{4-[3-(3-ethoxy-phenyl)-ureido]-phenyl}-piperazine-1-carboxylic acid [2-chloro-5-(2-hydroxy-ethoxy)-phenyl]-amide]	≥ 50	196 to 197
O=C(Nc1ccc(N2CCN(C(=O)Nc3ccc(OCCO)cc3C(F)(F)F)CC2)cc1)Nc1ccc2c(c1)CCO2 [Example 243, 4-{4-[3-(2,3-dihydro-benzofuran-5-yl)-ureido]-phenyl}-piperazine-1-carboxylic acid [4-(2-hydroxy-ethoxy)-2-trifluoromethyl-phenyl]-amide]	≥ 50	212 to 214
COc1ccc(F)cc1NC(=O)Nc1ccc(N2CCN(C(=O)Nc3ccccc3C)CC2)cc1 [Example 97, 4-{4-[3-(5-fluoro-2-methoxy-phenyl)-ureido]-phenyl}-piperazine-1-carboxylic acid o-tolylamide]	≥ 50	222 to 224
COc1ccc(C)cc1NC(=O)Nc1ccc(C2=CCN(C(=O)Nc3ncccc3C)CC2)cc1 [Example 324, 4-{4-[3-(2-methoxy-5-methyl-phenyl)-ureido]-phenyl}-3,6-dihydro-2H-pyridine-1-carboxylic acid (3-methyl-pyridin-2-yl)-amide]	≥ 50	195 to 198
CCOc1ccc(F)cc1NC(=O)Nc1ccc(N2CCN(C(=O)Nc3ccccc3C(F)(F)F)CC2)cc1 [Example 89, 4-{4-[3-(2-ethoxy-5-fluoro-phenyl)-ureido]-phenyl}-piperazine-1-carboxylic acid (2-trifluoromethyl-phenyl)-amide]	≥ 50	197 to 199
COc1ccc(C)cc1NC(=O)Nc1ccc(N2CCN(C(=O)C(O)c3ccccc3Cl)CC2)cc1 (centres unmarked) [Example 378, 1-(4-{4-[2-(2-chloro-phenyl)-2-hydroxy-acetyl]-piperazin-1-yl}-phenyl)-3-(2-methoxy-5-methyl-phenyl)-urea]	≥ 50	118 to 120

Next, values leading:

inhibition at 0.1 µg/mL (mouse DGAT1) [%]	melting point [°C]	Structure (SMILES)
≥ 50	212 to 214	CCOc1ccc(F)cc1NC(=O)Nc1ccc(N2CCN(C(=O)Nc3c(Cl)cccc3Cl)CC2)cc1 [Example 94, 4-{4-[3-(2-ethoxy-5-fluoro-phenyl)-ureido]-phenyl}-piperazine-1-carboxylic acid (2,6-dichloro-phenyl)-amide]
≥ 50	228 to 230	Cc1cccc(Cl)c1NC(=O)N1CCN(c2ccc(NC(=O)Nc3cc(C(F)(F)F)ccc3F)cc2)CC1 [Example 163, 4-{4-[3-(2-fluoro-5-trifluoromethyl-phenyl)-ureido]-phenyl}-piperazine-1-carboxylic acid (2-chloro-6-methyl-phenyl)-amide]
≥ 50	221 to 222	COc1ccc(C)cc1NC(=O)Nc1ccc(N2CCN(C(=O)Nc3c(C)cccc3Br)CC2)cc1 [Example 177, 4-{4-[3-(2-methoxy-5-methyl-phenyl)-ureido]-phenyl}-piperazine-1-carboxylic acid (2-bromo-6-methyl-phenyl)-amide]
≥ 50	249 to 251	Cc1cccc(Cl)c1NC(=O)N1CCN(c2ccc(NC(=O)Nc3cc(C(F)(F)F)ccc3Cl)cc2)CC1 [Example 164, 4-{4-[3-(2-chloro-5-trifluoromethyl-phenyl)-ureido]-phenyl}-piperazine-1-carboxylic acid (2-chloro-6-methyl-phenyl)-amide]
≥ 50	159 to 161	CCOc1ccc(Cl)cc1NC(=O)Nc1ccc(N2CCN(C(=O)Nc3c(C)cccc3Cl)CC2)cc1 [Example 103, 4-{4-[3-(5-chloro-2-ethoxy-phenyl)-ureido]-phenyl}-piperazine-1-carboxylic acid (2-chloro-6-methyl-phenyl)-amide]
≥ 50	210 to 221	COc1ccc(C)cc1NC(=O)Nc1ccc(N2CCN(C(=O)Nc3c(Cl)cccc3Cl)CC2)cc1 [Example 65, 4-{4-[3-(2-methoxy-5-methyl-phenyl)-ureido]-phenyl}-piperazine-1-carboxylic acid (2,6-dichloro-phenyl)-amide]
≥ 50	251 to 253	Cc1ccc(C)c(NC(=O)Nc2ccc(N3CCN(C(=O)Nc4c(C)cccc4Cl)CC3)cc2)c1 [Example 131, 4-{4-[3-(2,5-dimethyl-phenyl)-ureido]-phenyl}-piperazine-1-carboxylic acid (2-chloro-6-methyl-phenyl)-amide]
≥ 50	209 to 211	COc1ccc(C)cc1NC(=O)Nc1ccc(N2CCN(C(=O)Nc3ccccc3C)CC2)cc1 [Example 54, 4-{4-[3-(2-methoxy-5-methyl-phenyl)-ureido]-phenyl}-piperazine-1-carboxylic acid o-tolylamide]
≥ 50	232 to 234	Cc1cccc(Cl)c1NC(=O)N1CCN(c2ccc(NC(=O)Nc3ccccc3F)cc2)CC1 [Example 125, 4-{4-[3-(2-fluoro-phenyl)-ureido]-phenyl}-piperazine-1-carboxylic acid (2-chloro-6-methyl-phenyl)-amide]
≥ 50	196 to 197	COc1ccc(C)cc1NC(=O)Nc1ccc(N2CCN(C(=O)Nc3c(Cl)cccc3C(F)(F)F)CC2)cc1 [Example 66, 4-{4-[3-(2-methoxy-5-methyl-phenyl)-ureido]-phenyl}-piperazine-1-carboxylic acid (2-chloro-6-trifluoromethyl-phenyl)-amide]
≥ 50	216 to 217	CCCc1ccccc1NC(=O)Nc1ccc(N2CCN(C(=O)Nc3c(C)cccc3Cl)CC2)cc1 [Example 130, 4-{4-[3-(2-propyl-phenyl)-ureido]-phenyl}-piperazine-1-carboxylic acid (2-chloro-6-methyl-phenyl)-amide]
≥ 50	234 to 236	COc1ccc(C)cc1NC(=O)Nc1ccc(C2CCN(C(=O)Nc3c(C)cccc3Cl)CC2)cc1 [Example 228, 4-{4-[3-(2-methoxy-5-methyl-phenyl)-ureido]-phenyl}-piperidine-1-carboxylic acid (2-chloro-6-methyl-phenyl)-amide]
